Patent US8691861B2, “Prodrugs of inhibitors of plasma kallikrein” (ActiveSite Pharmaceuticals, Inc., priority 2011, dated 2014)
Non-standard residues stand in square brackets, D forms with d. *: point of attachment. CH2Cl = ClC*

Assays:
[1] = rat models of arthritis; cited from earlier work
[2] = Conversion of prodrug in vivo: plasma levels of the active plasma kallikrein inhibitor after oral dosing of the prodrug; parameters: species or system Sprague-Dawley rats; conditions: rats, 25 mg/kg oral in PEG400
Protocol: Young male Sprague-Dawley rats were orally dosed at 25 mg/kg with the prodrug 1-(4-fluorophenyl)-N-[[4-(N′-hydroxycarbamimidoyl)phenyl]methyl]-2,5-dimethyl-pyrrole-3-carboxamide dissolved in PEG400. Blood was removed at various time intervals via an arterial catheter into a citrated collection tube, and plasma generated by centrifugation. The concentration of the active plasma kallikrein inhibitor N-[(4-carbamimidoylphenyl)methyl]-1-(4-fluorophenyl)-2,5-dimethyl-pyrrole-3-carboxamide in the plasma samples were determined using LC/MS/MS.

[3] = cited from earlier work
[4] = LPS or bacterial induced sepsis in animals; cited from earlier work
[5] = angiotensin-II-induced; cited from earlier work
[6] = diabetic animals; cited from earlier work
[7] = rat model of ischemic stroke; cited from earlier work
[8] = model of hemorrhagic stroke; cited from earlier work
[9] = mouse model of middle cerebral artery occlusion; cited from earlier work
[10] = cited from earlier work; remark: listed apart in the source

Cl.NCC1CCC(C(=O)N[C@@H](Cc2ccccc2)C(=O)Nc2ccc(CC(=O)O)cc2)CC1 (stereo partly shown) [PKSI-527]
joint swelling [1]: reduce

Cc1cc(C(=O)NCc2ccc(/C(N)=N/O)cc2)c(C)n1-c1ccc(F)cc1 [1-(4-fluorophenyl)-N-[[4-(N′-hydroxycarbamimidoyl)phenyl]methyl]-2,5-dimethyl-pyrrole-3-carboxamide]
absorption from the gastrointestinal tract following oral dosing [2]: absorbed from the gastrointestinal tract | conversion in vivo into the active compound [2]: effectively converted in vivo

NC(N)=NCCC[C@@H](N)C(=O)N[C@@H](CCCN=C(N)N)C(=O)N1CCC[C@H]1C(=O)N1C[C@H](O)C[C@H]1C(=O)NCC(=O)N[C@@H](Cc1cccs1)C(=O)N[C@@H](CO)C(=O)N1Cc2ccccc2C[C@@H]1C(=O)N1[C@H](C(=O)N[C@@H](CCCN=C(N)N)C(=O)O)C[C@@H]2CCCC[C@@H]21 [icatibant]
effectiveness in treating HAE [3]: effective

H-[dP]-Phe-Arg-CH2Cl
lesions [4]: reduce

N=C(N)c1ccc(CNC(=O)c2cnn(Cc3ccccc3)c2)cc1 [ASP-440]
elevated systolic blood pressure [5]: reduce | plasma leakage into the retina [6]: inhibits | cerebrovascular edema [7]: reduce | infarction volume [7]: reduce | expansion of intracerebral hemorrhage [8]: reduce

B1: C1-INH: the major endogenous inhibitor of PK (protein, UniProt P05155 23-500, looked up)
Plasma protease C1 inhibitor: NPNATSSSSQDPESLQDRGEGKVATTVISKMLFVEPILEVSSLPTTNSTTNSATKITANTTDEPTTQPTTEPTTQPTIQPTQPTTQLPTDSPTQPTTGSFCPGPVTLCSDLESHSTEAVLGDALVDFSLKLYHAFSAMKKVETNMAFSPFSIASLLTQVLLGAGENTKTNLESILSYPKDFTCVHQALKGFTTKGVTSVSQIFHSPDLAIRDTFVNASRTLYSSSPRVLSNNSDANLELINTWVAKNTNNKISRLLDSLPSDTRLVLLNAIYLSAKWKTTFDPKKTRMEPFHFKNSVIKVPMMNSKKYPVAHFIDQTLKAKVGQLQLSHNLSLVILVPQNLKHRLEDMEQALSPSVFKAIMEKLEMSKFQPTLLTLPRIKVTTSQDMLSIMEKLEFFDFSYDLNLCGLTEDPDLQVSAMQHQTVLELTETGVEAAAASAISVARTLLVFEVQQPFLFVLWDQQHKFPVFMGRVYDPRA
infarct size [9]: reduced | lesions [4]: reduce | clinical outcome in sepsis patients [10]: Clinical improvement
